{
  "source": "patent US20140275166A1",
  "about": "“SPINTRAPS AND SPIN LABELS AND THEIR HYDROXYLAMINES FOR PERI- AND POST-MENOPAUSAL SYNDROME” (priority 2013, published 2014)",
  "key": {"acute ischemic stroke": {"tested_on": "acute ischemic stroke", "conditions": "animal models versus humans; cited from earlier work"}, "[1]": {"tested_on": "fibrocystic disease of breast", "conditions": "in vivo; cited from earlier work"}, "[2]": {"tested_on": "perimenopausal symptoms, including hot flashes, sweating, and discomfort", "assay": "Oral treatment of peri- and post-menopausal symptoms in one patient", "assay_type": "in vivo, human", "description": "The reduced form of TEMPOL (TEMPOL-H) or equivalent pharmacologically-active spin label/spintrap is prepared by mixing together 2 grams of TEMPOL or a pharmacologically effective amount of another spin-label or spin trap such as methynitrosopropane, 20 grams of ascorbic acid or other reducing compound in 100 ml of distilled water. The formulation is used as is. The solution is slightly-bitter. The formulation can be administered diluted in a suitable liquid such as juice, tea, or coffee. An equivalent dry form as 10 mg of tempol mixed with 100 mg of ascorbic acid or equivalent reducing substance can be easily prepared in capsule or tablet form.\nOne-half ml of the above solution, comprising 10 mg TEMPOL plus 100 mg ascorbic acid, was administered orally 1-3 times a day to a 50 kg person with perimenopausal symptoms, including hot flashes, sweating, and discomfort.\nParental modes of administration such as intravenous, intramuscular, subcutaneous, intraperitoneal, transrectal and so forth are also possible, as are topical modes of administration such as in lotions, creams, gels, and topically-compatible suspensions and solutions."}, "SHR": {"tested_on": "SHR", "conditions": "cited from earlier work"}, "[3]": {"tested_on": "arterioles from intact and OVE females", "conditions": "cited from earlier work"}, "[4]": {"conditions": "10 mg TEMPOL plus 100 mg ascorbic acid orally 1-3 times a day, 50 kg person"}},
  "note": "Where two headings read alike, the source gives them in different places.",
  "data": [
    {"compound": "CC(C)(C)[N+]([O-])=Cc1ccc(S(=O)(=O)[O-])cc1S(=O)(=O)[O-].[Na+].[Na+]", "note": "[NXY-059, disulfonyl PBN]", "values": [
      {"measurement": "neuroprotective efficacy", "setting": "acute ischemic stroke", "result": "effective in animal models, but not in humans"}
    ]},
    {"compound": "CC1(C)CC(O)CC(C)(C)N1O", "note": "[TEMPOL-H, the hydroxylamine reduced form of the nitroxide 4-hydroxy-2,2,6,6-tetramethylpiperidin-1-yloxy]", "values": [
      {"measurement": "efficacy in fibrocystic disease of breast", "setting": "[1]", "result": "effective"},
      {"measurement": "skin changes typical of menopause", "setting": "[2]; 10 mg TEMPOL plus 100 mg ascorbic acid orally 1-3 times a day", "result": "yet to develop the skin changes typical of menopause"},
      {"measurement": "effect on perimenopausal symptoms", "setting": "[2]; [4]", "result": "disappearance of hot flashes, sweating, and discomfort"},
      {"measurement": "time to first results of treatment", "setting": "[2]; [4]", "result": "1-2 weeks"},
      {"measurement": "symptoms on cessation of treatment", "setting": "[2]; after long-term relief, treatment stopped", "result": "symptoms eventually reappear on cessation of treatment"},
      {"measurement": "perimenopausal symptoms during earlier TEMPOL-H treatment for fibrocystic disease of breast", "setting": "[2]; same patient, menses stopped", "result": "had not presented with perimenopausal symptoms"},
      {"measurement": "symptoms upon resumption of treatment", "setting": "[2]; treatment resumed after cessation", "result": "symptoms disappear"}
    ]},
    {"compound": "CC(C)(C)[N+]([O-])=Cc1ccccc1", "note": "[Phenylbutylnitrone, 1-alpha-phenyl-tert-butyl nitrone]", "values": [
      {"measurement": "efficacy on perimenopausal symptoms", "setting": "[2]; 100 mg dose per day", "result": "also effective"}
    ]},
    {"compound": "CC1(C)CC(O)CC(C)(C)N1[O]", "note": "[TEMPOL, 4-hydroxy-TEMPO]", "values": [
      {"measurement": "antihypertensive response", "setting": "SHR; male SHR and female SHR given tempol for the first 15 weeks of life", "result": "had an antihypertensive response"},
      {"measurement": "antihypertensive response", "setting": "SHR; postmenopausal female SHR", "result": "no response was observed"},
      {"measurement": "BP lowering by sex and age", "setting": "SHR; young female versus young male SHR, and after menopause", "result": "more effective in lowering the BP of young female than young male SHR and became less effective after menopause"},
      {"measurement": "flow-induced increases in NO and subsequent vasodilation", "setting": "[3]", "result": "blunted flow-induced increases in NO and subsequent vasodilation"},
      {"measurement": "efficacy on perimenopausal symptoms", "setting": "[2]; Tempol itself, without reducing agent, at the same doses", "result": "effective at the same doses"}
    ]}
  ]
}
